# Assay results published in patent US20260207513A1, “PHARMACEUTICAL COMPOSITION OF SIPONIMOD” (Synthon B.V., priority 2022, published 2026).
# Where two headings read alike, the source gives them in different places.
# Experiments:
# [1] = Compatibility study, closed container: sum of impurities by HPLC
# Description: Afterwards, the two components were blended in Turbula® at 72 rpm for 10 minutes. The resulting blend was compacted in the EKO eccentric compression machine in order to obtain a slug. The slug was milled manually, resulting into a milled blend. The milled blend (440 mg) was accurately weighed and placed in glass, opaque vial. […] The milled blend was then analyzed for a sum of area percent levels of impurities (A^imp) by HPLC. The HPLC was performed on Acquity UPLC BEH C8, 150×2.1 mm, dp=1.7 μm column. The detection with UV light at wavelength of 259 nm was used. The column was eluted, using a gradient method, with aqueous ammonium acetate (10 mM, pH 5.5) and acetonitrile at column temperature of 50° C. for 30 min.
# [2] = Water content w(H2O), Karl Fischer method; type: physicochemical
# Text: […] The water content can be determined according to the Karl Fischer method as described in Ph. Eur. section 2.5.32. The determination is done by coulometry, preferably Mettler Toledo DL39 Karl Fisher Coulometer, or an equivalent apparatus, including a titration cell without diaphragm. Alternatively, the volumetric Karl Fisher method can be used to determine the water content. […] The water content can be achieved by choosing appropriate ingredients, drying, wetting or combination thereof.
# [3] = siponimod adipic acid co-crystal:excipient 1:10 (w/w), excipients substantially dry w(H2O) < 0.5%, closed container, 1 month, 40° C., RH 75%
# [4] = Excipients - substantially dry w(H2O) < 0.5%
# [5] = Excipients - hydrated w(H2O) ≥ 5%
# [6] = Excipients - dry 0.5% ≤ w(H2O) < 5%
Compound,"A^imp (1 m), sum of area percent levels of impurities [1, 3] [%]","w (H2O) [2, 4] [%]",other results
CCCCCCCCCCCCCCCCCCCCCC(=O)OCC(CO)OC(=O)CCCCCCCCCCCCCCCCCCCCC (stereo not shown) [Glycerol dibehenate],0.08,0.1,–
OC[C@H]1O[C@@H](O[C@H]2[C@H](O)[C@@H](O)C(O)O[C@@H]2CO)[C@H](O)[C@@H](O)[C@H]1O (stereo partly shown) [Lactose],–,–,"w (H2O) [2, 5]: 5.0%"
OC[C@@H](O)[C@@H](O)[C@H](O)[C@H](O)CO [Mannitol],–,–,"w (H2O) [2, 6]: 0.6%"
CCc1cc(/C(C)=N/OCc2ccc(C3CCCCC3)c(C(F)(F)F)c2)ccc1CN1CC(C(=O)O)C1 [Siponimod adipic acid co-crystal],–,–,"A^imp (1 m), sum of area percent levels of impurities ([1]; Active ingredients, closed container, t = 1 month, 40° C., RH 75%): 0.09%; w (H2O) ([2]; Active ingredients): 0.2%"
Isomalt,–,–,"w (H2O) [2, 6]: 2.9%; w (H2O) [2, 5]: 5.0%"
Magnesium stearate,–,0.2,"A^imp (1 m), sum of area percent levels of impurities [1]: 0.16%"

# Continued, in another order:
"A^imp (1 m), sum of area percent levels of impurities [1, 3] [%]","w (H2O) [2, 4] [%]",Compound,other results
0.12,0.2,CCCCCCCCCCCCCCCCCC(=O)OCC(O)CO (stereo not shown) [Glycerol monostearate],–
0.08,0.4,CCCCCCCCCCCCCCCCCCOC(=O)/C=C/C(=O)[O-].[Na+] [Sodium stearyl fumarate],–
0.05,0.3,CCCCCCCCCCCCCCCCCCO [Stearyl alcohol],–
